For ten compounds, % of inhibition, % of control and % activity results are on record in ChEMBL document CHEMBL5465560, “Selectivity Literature for EUbOPEN Chemogenomic Library” (2024).

Assay [1] deals with Dual specificity protein kinase CLK3 (Homo sapiens, UniProt P49761). The following applies: at 1 µM.
Assay [2] deals with Mitogen-activated protein kinase 9 (Homo sapiens, UniProt P45984). Put plainly: Selectivity interaction (ProQinase) EUB0000171b MAPK9.
Assay [3] has as its target Phosphorylase b kinase gamma catalytic chain, skeletal muscle/heart isoform (Homo sapiens) (UniProt Q16816). The assay is described as follows: Selectivity interaction (ProQinase) EUB0000171b PHKG1.
The subject of assay [4] is Epidermal growth factor receptor (Homo sapiens), P00533 [L861Q]. Put plainly: (§1) Selectivity interaction (Ambit KINOMEscan and KiNATiv profiling in Jurkat cells) EUB0000090b EGFR. The following applies: at 1 µM. Type of assay: cell-based.
For assay [5], the target named is T1, Epidermal growth factor receptor (Homo sapiens, UniProt P00533). The assay is described as §1. Type of assay: cell-based. Particulars: at 1 µM.
For assay [6], the system named is Epidermal growth factor receptor (Homo sapiens), P00533 [L858R]. The description is as §1. Type of assay: cell-based. Particulars: at 1 µM.
For assay [7], the system named is Epidermal growth factor receptor (Homo sapiens), P00533 [L858R,T790M]. The assay is described as §1. Type of assay: cell-based. Particulars: at 1 µM.
For assay [8], the system named is Epidermal growth factor receptor (Homo sapiens), P00533 [UNDEFINED MUTATION]. The description is as §1. The following applies: at 1 µM. Type of assay: cell-based.
Assay [9] deals with Epidermal growth factor receptor (Homo sapiens), P00533 [G719C]. The description is as §1. Particulars: at 1 µM. Type of assay: cell-based.
In assay [10] the test system is Epidermal growth factor receptor (Homo sapiens), P00533 [G719S]. Described as §1. The format is cell-based. Particulars: at 1 µM.
For assay [11], the system named is Epidermal growth factor receptor (Homo sapiens), P00533 [T790M]. The description is as §1. Particulars: at 1 µM. Type of assay: cell-based.
In assay [12] the target is T2, Serine/threonine-protein kinase NLK (Homo sapiens) (UniProt Q9UBE8).
T2 sequence (whole entry): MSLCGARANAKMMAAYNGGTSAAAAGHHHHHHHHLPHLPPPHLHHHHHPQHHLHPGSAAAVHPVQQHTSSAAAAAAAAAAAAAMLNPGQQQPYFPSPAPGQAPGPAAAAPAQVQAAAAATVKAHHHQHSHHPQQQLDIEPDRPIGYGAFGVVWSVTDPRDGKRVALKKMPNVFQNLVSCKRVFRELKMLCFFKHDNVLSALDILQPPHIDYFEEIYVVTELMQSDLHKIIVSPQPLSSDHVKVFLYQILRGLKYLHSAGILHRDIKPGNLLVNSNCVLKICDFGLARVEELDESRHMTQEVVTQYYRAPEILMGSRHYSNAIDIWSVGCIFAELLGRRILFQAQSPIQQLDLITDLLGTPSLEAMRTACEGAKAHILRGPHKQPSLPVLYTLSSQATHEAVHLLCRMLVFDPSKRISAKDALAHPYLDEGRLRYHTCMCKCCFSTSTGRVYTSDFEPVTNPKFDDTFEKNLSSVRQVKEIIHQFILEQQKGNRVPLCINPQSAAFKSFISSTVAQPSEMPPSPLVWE
Particulars: at 10 µM.

The target of assay [13] is Protein kinase C theta type (Homo sapiens, UniProt Q04759). The assay is described as follows: Selectivity interaction (KinomeScan (DiscoverX)) EUB0001079a PRKCQ. The following applies: at 1 µM.
Another assay deals with Aurora kinase B (Homo sapiens, UniProt Q96GD4). Put plainly: Selectivity interaction (KinomeScan (DiscoverX)) EUB0001079a AURKB. Particulars: at 1 µM.
For assay [14], the target named is T3, Mitogen-activated protein kinase kinase kinase 15 (Homo sapiens) (UniProt Q6ZN16).
T3 sequence (whole entry): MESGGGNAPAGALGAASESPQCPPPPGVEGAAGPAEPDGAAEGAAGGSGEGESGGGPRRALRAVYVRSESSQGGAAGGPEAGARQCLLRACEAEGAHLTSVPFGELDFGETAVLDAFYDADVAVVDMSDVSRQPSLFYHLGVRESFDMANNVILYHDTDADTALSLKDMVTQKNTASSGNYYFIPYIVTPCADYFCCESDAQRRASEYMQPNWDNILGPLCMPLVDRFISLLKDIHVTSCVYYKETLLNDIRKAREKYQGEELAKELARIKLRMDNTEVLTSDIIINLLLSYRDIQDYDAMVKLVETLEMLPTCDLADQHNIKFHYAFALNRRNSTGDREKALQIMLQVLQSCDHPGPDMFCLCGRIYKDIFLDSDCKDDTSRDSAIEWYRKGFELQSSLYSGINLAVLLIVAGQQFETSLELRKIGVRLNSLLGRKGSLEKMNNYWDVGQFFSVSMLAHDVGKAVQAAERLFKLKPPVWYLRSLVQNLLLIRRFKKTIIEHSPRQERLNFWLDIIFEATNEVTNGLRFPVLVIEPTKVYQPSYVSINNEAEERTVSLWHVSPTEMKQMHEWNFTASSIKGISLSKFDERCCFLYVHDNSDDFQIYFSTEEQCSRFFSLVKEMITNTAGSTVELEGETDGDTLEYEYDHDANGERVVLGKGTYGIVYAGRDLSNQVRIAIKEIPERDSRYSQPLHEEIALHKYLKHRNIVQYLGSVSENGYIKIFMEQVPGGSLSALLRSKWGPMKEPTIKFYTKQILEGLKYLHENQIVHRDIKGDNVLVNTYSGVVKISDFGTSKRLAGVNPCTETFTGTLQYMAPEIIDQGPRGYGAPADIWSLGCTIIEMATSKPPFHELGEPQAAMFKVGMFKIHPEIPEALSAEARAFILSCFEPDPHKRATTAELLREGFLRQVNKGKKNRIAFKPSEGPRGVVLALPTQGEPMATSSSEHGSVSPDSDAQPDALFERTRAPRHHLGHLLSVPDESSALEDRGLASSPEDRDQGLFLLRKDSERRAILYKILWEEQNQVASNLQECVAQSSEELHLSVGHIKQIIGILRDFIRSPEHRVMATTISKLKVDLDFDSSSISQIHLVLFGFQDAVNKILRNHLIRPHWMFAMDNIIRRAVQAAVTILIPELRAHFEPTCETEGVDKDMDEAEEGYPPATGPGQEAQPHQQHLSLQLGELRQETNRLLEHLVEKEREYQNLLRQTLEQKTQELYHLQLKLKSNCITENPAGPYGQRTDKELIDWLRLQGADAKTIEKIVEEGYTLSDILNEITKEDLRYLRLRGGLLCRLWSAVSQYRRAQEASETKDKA
Put plainly: Selectivity interaction (KinomeScan (DiscoverX)) EUB0000695a MAP3K15. The following applies: at 100 nM.

Assay [15] concerns the target Histone-lysine N-methyltransferase, H3 lysine-79 specific (Homo sapiens, UniProt Q8TEK3). Put plainly: Selectivity interaction (Transferase panel (protein, RNA, and DNA methyltransferases. and EP300 (acetyltransferase))) EUB0000270b DOT1L.
Assay [16] concerns the target Platelet-derived growth factor receptor alpha (Homo sapiens, UniProt P16234). The assay is described as follows: Selectivity interaction (KinomeScan (DiscoverX)) EUB0000045b PDGFRA.
The target in assay [17] is STE20-like serine/threonine-protein kinase (Homo sapiens, UniProt Q9H2G2). Put plainly: Selectivity interaction (KinomeScan (DiscoverX)) EUB0000666a SLK. Particulars: at 10 µM.
Assay [18] has as its system Epidermal growth factor receptor (Homo sapiens), P00533 [L861Q]. The assay is described as follows: (§2) Selectivity interaction (Kinase panel (Z-LYTE Assay)) EUB0001632a EGFR. Particulars: at 10 µM.
Assay [19] concerns the target T1, Epidermal growth factor receptor. The description is as §2. The following applies: at 10 µM.
Assay [20] has as its system Epidermal growth factor receptor (Homo sapiens), P00533 [L858R]. Described as §2. The following applies: at 10 µM.
Assay [21] relates to Epidermal growth factor receptor (Homo sapiens), P00533 [L858R,T790M]. The description is as §2. Particulars: at 10 µM.
Assay [22] deals with Epidermal growth factor receptor (Homo sapiens), P00533 [T790M]. The description is as §2. The following applies: at 10 µM.

Histone-lysine N-methyltransferase, H3 lysine-79 specific, sequence (Q8TEK3 whole entry, looked up): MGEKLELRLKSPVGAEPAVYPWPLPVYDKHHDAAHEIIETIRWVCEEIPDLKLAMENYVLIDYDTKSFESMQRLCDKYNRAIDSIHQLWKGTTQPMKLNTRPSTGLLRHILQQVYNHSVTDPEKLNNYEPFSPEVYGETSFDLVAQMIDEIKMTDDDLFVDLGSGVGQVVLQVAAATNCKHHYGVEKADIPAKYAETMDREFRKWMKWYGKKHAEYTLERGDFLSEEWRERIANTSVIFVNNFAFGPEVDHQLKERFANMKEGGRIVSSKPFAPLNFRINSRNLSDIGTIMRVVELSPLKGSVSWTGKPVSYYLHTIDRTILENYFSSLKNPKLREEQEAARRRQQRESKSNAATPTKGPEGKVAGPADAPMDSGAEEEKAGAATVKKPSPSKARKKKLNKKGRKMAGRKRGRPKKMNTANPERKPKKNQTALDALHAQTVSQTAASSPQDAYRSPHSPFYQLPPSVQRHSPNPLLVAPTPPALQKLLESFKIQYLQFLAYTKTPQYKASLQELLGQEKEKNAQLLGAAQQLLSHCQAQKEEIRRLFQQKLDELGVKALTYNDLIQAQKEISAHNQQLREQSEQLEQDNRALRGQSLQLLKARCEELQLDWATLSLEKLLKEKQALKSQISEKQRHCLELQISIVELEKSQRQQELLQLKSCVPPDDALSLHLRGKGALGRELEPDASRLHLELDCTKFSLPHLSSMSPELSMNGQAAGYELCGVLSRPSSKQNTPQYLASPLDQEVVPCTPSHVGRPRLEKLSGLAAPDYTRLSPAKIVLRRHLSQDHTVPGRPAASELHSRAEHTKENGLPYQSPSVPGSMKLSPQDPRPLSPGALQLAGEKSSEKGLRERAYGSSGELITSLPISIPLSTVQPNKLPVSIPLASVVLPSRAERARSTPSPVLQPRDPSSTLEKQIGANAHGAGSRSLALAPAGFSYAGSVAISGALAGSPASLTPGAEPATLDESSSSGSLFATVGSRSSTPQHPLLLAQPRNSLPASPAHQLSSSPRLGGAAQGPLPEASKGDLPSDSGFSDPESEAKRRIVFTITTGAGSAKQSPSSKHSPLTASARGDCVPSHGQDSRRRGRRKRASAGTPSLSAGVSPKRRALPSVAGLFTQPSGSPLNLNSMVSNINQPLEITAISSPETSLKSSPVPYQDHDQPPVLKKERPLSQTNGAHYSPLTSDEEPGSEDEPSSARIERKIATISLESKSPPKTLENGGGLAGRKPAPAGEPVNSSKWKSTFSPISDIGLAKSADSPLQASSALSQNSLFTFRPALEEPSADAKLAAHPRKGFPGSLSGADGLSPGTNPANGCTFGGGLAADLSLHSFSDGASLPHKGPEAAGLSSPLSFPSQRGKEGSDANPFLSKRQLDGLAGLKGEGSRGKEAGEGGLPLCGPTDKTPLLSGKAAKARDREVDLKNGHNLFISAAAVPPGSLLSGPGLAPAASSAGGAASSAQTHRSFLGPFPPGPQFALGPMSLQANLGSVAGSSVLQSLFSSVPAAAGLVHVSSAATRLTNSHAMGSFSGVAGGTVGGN
Phosphorylase b kinase gamma catalytic chain, skeletal muscle/heart isoform (Homo sapiens), sequence (Q16816 whole entry, looked up, canonical isoform): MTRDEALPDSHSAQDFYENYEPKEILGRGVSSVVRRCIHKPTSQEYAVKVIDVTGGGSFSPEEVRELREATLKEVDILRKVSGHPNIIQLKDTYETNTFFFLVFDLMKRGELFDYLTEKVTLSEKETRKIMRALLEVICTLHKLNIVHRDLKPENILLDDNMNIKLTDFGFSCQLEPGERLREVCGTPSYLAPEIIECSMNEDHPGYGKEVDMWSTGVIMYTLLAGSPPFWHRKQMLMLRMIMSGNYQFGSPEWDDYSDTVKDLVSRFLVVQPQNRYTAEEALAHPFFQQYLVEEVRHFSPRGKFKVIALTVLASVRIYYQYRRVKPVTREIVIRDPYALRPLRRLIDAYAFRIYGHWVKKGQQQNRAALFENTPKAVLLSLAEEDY
Epidermal growth factor receptor (Homo sapiens), P00533 [T790M], sequence (P00533 whole entry T790M): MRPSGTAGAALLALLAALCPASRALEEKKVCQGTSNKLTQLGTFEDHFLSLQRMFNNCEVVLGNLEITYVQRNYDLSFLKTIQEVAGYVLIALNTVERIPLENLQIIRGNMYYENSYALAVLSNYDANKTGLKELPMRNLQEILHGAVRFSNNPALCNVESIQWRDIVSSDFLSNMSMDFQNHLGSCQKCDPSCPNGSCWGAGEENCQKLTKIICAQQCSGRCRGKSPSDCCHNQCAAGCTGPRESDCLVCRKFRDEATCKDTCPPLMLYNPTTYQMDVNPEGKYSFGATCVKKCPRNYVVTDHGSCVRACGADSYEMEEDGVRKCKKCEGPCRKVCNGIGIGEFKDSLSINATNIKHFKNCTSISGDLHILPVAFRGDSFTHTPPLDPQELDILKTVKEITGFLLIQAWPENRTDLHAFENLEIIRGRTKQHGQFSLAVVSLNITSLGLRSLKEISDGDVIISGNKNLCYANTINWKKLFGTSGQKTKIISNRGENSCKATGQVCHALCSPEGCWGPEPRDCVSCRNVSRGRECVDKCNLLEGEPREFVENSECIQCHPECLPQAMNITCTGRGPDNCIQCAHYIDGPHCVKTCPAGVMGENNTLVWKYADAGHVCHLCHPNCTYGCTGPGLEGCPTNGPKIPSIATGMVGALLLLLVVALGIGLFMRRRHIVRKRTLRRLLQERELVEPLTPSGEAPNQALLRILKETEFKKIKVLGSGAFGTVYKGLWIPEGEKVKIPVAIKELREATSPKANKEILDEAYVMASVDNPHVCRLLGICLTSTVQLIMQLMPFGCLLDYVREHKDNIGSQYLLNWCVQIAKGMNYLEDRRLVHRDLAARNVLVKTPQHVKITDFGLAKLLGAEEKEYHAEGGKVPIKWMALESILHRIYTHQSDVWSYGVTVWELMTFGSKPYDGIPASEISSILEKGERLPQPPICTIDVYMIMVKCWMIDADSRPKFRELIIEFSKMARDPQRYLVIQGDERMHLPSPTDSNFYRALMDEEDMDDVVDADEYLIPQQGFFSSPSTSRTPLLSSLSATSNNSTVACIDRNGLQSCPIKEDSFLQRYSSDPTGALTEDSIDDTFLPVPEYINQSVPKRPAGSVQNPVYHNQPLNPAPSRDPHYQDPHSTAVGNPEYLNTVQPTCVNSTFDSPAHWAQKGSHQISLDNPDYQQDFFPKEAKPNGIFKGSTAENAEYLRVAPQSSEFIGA
Platelet-derived growth factor receptor alpha, sequence (P16234 whole entry): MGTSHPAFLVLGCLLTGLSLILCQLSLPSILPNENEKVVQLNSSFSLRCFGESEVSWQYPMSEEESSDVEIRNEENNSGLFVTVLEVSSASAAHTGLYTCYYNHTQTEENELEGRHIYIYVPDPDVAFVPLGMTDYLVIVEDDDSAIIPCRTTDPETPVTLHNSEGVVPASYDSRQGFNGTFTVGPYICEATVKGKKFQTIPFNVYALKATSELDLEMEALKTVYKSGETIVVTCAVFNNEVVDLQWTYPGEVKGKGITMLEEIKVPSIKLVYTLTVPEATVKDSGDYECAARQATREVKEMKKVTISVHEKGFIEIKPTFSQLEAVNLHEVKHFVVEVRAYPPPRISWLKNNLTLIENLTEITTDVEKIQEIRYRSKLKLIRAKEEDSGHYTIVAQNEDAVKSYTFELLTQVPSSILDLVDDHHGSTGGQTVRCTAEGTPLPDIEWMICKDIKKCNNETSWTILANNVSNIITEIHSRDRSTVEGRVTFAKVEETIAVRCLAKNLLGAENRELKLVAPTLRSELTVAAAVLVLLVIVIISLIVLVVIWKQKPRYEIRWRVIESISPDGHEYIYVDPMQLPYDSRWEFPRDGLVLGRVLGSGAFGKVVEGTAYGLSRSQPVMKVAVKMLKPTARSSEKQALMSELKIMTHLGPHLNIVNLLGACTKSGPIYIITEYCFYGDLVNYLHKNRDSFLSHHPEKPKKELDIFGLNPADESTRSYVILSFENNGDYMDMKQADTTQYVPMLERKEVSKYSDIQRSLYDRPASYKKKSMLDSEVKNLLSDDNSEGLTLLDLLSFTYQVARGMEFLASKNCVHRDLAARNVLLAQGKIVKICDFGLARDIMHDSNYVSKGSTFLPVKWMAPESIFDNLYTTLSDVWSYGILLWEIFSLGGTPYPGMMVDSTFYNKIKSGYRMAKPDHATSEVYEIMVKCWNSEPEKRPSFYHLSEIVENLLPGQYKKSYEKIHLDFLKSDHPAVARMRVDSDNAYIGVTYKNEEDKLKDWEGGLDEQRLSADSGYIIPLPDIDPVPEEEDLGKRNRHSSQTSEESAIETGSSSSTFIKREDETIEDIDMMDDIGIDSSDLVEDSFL
Mitogen-activated protein kinase 9, sequence (P45984 whole entry, looked up, canonical isoform): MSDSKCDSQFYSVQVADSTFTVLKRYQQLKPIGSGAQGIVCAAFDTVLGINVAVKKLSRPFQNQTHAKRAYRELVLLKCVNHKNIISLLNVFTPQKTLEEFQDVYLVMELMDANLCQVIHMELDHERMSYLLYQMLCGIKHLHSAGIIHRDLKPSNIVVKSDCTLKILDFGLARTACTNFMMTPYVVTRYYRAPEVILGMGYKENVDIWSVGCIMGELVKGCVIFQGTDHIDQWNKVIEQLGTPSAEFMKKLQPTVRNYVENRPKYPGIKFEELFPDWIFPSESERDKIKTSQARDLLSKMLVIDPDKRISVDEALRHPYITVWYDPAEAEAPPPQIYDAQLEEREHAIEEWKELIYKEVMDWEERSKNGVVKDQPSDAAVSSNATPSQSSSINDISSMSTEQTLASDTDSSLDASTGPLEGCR
Aurora kinase B, sequence (Q96GD4 whole entry): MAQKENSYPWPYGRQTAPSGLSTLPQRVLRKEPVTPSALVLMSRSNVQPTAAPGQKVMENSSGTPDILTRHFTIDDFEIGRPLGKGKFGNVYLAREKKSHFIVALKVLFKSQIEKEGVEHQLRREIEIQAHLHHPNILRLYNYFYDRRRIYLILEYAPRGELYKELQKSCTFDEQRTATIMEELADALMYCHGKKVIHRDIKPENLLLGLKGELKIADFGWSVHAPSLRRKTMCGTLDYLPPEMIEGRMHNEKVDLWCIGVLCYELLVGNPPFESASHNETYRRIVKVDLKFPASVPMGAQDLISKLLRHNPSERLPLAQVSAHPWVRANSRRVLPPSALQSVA

In the case of `Cc1ccc(-c2ccc3c(ccc4sc5c(c43)NC[C@@H](C)NC5=O)n2)cn1`, in [1], the % of inhibition is 24%.
For `C=CC(=O)Nc1cccc(C(=O)Nc2ccc(Nc3cc(-c4[nH]c(SC)nc4C)ccn3)cc2)c1`, the % of control is 8% in [2] (at 1 µM), 1% in assay [2] (at 5 µM), 80% in assay [3] (at 1 µM) and 44% in assay [3] (at 5 µM).
As to `CN(C)C/C=C/C(=O)Nc1ccc(C(=O)N2CCCC(Nc3ncc(Cl)c(-c4c[nH]c5ccccc45)n3)C2)cc1` (configuration not stated), the % of control in [4] was 71%; in assay [5] it was 99%; in assay [6] it was 100%; in [7], 90%; in assay [8], 70%; in assay [9] it was 88%. The % of control in [10] was determined as 91%; in assay [11] it was 99%.
As to `CCN(CC)CCCCNc1ncc2cc(-c3cc(OC)cc(OC)c3)c(NC(=O)NC(C)(C)C)nc2n1`, the % of control in assay [12] is 100%.
With `Nc1cnc(N2CCc3cc(S(=O)(=O)Nc4c(F)cc(Cl)cc4F)cc(N4CCCC4=O)c32)nc1` [TP-020n], the values for the % of control (in [13]; on Aurora kinase B) were 89% and 98%, respectively.
With `Cc1cc(F)c(C(=O)Nc2cccc(-c3nncn3C(C)C)n2)cc1-n1cnc(C2CC2)c1`, in assay [14], the % of control turned out to be 66%.
On to `Cc1cc(CN)cc(C)c1-c1ncn(C)c1-c1cncn1C`, for which the % activity in [15] (at 1 µM) is more than 90%; in assay [15] (at 10 µM), more than 80%.
Take `C=CC(=O)Nc1cc(-n2c(=O)ccc3cnc4ccc(-c5ccc(NS(C)(=O)=O)cc5)cc4c32)ccc1C`: the % of control in assay [16] (at 1 µM) came out at 92%; in assay [16] (at 10 µM) it was 100%.
In [17], `O=C(NOC[C@H](O)CO)c1ccc(F)c(F)c1Nc1ccc(I)cc1F` returned a % of control of 93%.
Take `Cn1cc(-n2cnc3c(NCc4nc5cc(Cl)c(Cl)cc5[nH]4)nc(N4CCOCC4)nc32)cn1`: the % of control amounted to 9.07% in [18]; 3.08% in [19]; 3.58% in assay [20]; 5.81% in assay [21]; 1.29% in assay [22].
